≈ marks a conversion by molar mass, not a printed value. Where “and” joins values, the source holds several entries; their conditions need not be identical. Identical values can stand only once.
Assays:
DCN1 = DCN1 (Homo sapiens, UniProt Q96GG9); experiment: Competitive fluorescence polarization (FP) binding assay with probe 46, DCN1; parameters: Human DCN1 (residues 58–259) were cloned into a pDEST17 plasmid containing an N-terminal His6 tag; made in house; host or cells: Rosetta2 cells (E. coli); conditions: for times weaker (less potent) than 30 in binding to DCN1: comparator 30; for Ki: competitive FP, probe 46 5 nM, DCN1 50 nM; for times less potent than 33 in binding to DCN1: comparator 33; for times less potent than 1 in binding to DCN1: comparator 1
Procedure: The FP competitive binding experiments were performed to determine the binding affinities of all synthesized DCN1 inhibitors. […] Serial dilutions of DCN1 or DCN2 protein were mixed with the probe (46) to a final volume of 200 μl in the assay buffer (100 mM phosphate buffer, pH = 6.5, with 0.02% Tween-20 and 2% DMSO). The final probe concentration was 5 nM in both DCN1 and DCN2 assays. Plates were incubated at room temperature for 30 min with gentle shaking for equilibrium.
The IC50 and Ki values of compounds were determined in competitive binding experiments. Mixtures of compounds in DMSO (4 μl) and of pre-incubated protein/probe complex solution (196 μl) in the assay buffer were added into assay plates that were incubated at room temperature for 30 min with gentle shaking. Final concentrations of DCN1 protein and fluorescent probe (46) were 50 and 5 nM, respectively. […] FP values were measured as described above. IC50 values were determined by nonlinear regression fitting of the competition curves using the dose response inhibition equation (four parameters, variable slopes) included in the Prism/GraphPad software. K i values were calculated using the methods described earlier.

[1] = Equilibrium aqueous solubility, small-scale shake-flask method; conditions: for solubility at 24 h: thermodynamic from solid
Procedure: The equilibrium aqueous solubility of an individual compound at different pH values was determined with a small-scale shake-flask method in Eppendorf tubes. Compounds were added as powder in excess to Britton-Robinson buffer at pH 2.0 or phosphate buffer at pH 7.4 until heterogeneous suspensions were obtained. Suspensions containing excessive compound powder were sonicated in a water bath for 30 min followed by incubation at room temperature with shaking for 24 h to achieve thermodynamic equilibrium. […] Supernatants obtained were filtered using Millipore MultiScreen filter plates equipped with 0.45 µm membranes. Compound concentrations in the saturated solutions were measured by UV spectroscopy at the maximum absorption wavelengths of each compound that were pre-determined by a spectrum scan.

Chain of DCN1 (Q96GG9 58-259): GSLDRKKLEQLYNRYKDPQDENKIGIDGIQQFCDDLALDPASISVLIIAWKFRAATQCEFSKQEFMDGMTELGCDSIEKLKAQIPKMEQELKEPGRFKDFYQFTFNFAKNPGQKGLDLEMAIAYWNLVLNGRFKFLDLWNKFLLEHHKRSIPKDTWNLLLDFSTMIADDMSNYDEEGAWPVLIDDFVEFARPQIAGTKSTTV

Ki (DCN1)	Molecule	other results
2240 ± 369 nM	CC[C@H](C)[C@@H](CN)NC(=O)[C@H](Cc1nc2ccc(C(C)C)cc2s1)NC=O [compound 31]	times weaker (less potent) than 30 in binding to DCN1 (DCN1): 34 times
67000 ± 8300 nM	CC[C@H](C)[C@@H](CN)NC(=O)[C@@H](N)Cc1nc2ccc(C(C)C)cc2s1 [compound 32]	times weaker (less potent) than 30 in binding to DCN1 (DCN1): > 1000 times
19 nM	CCC(=O)N[C@@H](Cc1nc2ccc(C(C)C)cc2s1)C(=O)N[C@H](CN)[C@@H](C)CC [compound 33]	
61 nM	CC[C@H](C)[C@@H](CN)NC(=O)[C@H](Cc1nc2ccc(C(C)C)cc2s1)NC(=O)C(C)C [compound 34]	
270 ± 34 nM	CCCC(=O)N[C@@H](Cc1nc2ccc(C(C)C)cc2s1)C(=O)N[C@H](CN)[C@@H](C)CC [compound 35]	
149 ± 28 nM	CC[C@H](C)[C@@H](CN)NC(=O)[C@H](Cc1nc2ccc(C(C)C)cc2s1)NC(=O)NC [compound 36]	
32000 ± 4200 nM	CCC(=O)N[C@@H](Cc1nc2ccc(C(C)C)cc2s1)C(=O)NCCN [compound 37]	times less potent than 33 in binding to DCN1 (DCN1): > 1000 times
7600 ± 380 nM	CCC(=O)N[C@@H](Cc1nc2ccc(C(C)C)cc2s1)C(=O)N[C@@H](C)CN [compound 38]	times less potent than 33 in binding to DCN1 (DCN1): > 400 times
79 nM	CCC(=O)N[C@@H](Cc1nc2ccc(C(C)C)cc2s1)C(=O)N[C@H](CN)Cc1ccccc1 [compound 39]	
13 nM	CCC(=O)N[C@@H](Cc1nc2ccc(C(C)C)cc2s1)C(=O)N[C@H](CN)C1CCCCC1 [compound 40]	aqueous solubility (in words) [1]: good; solubility at 24 h ([1]; Britton-Robinson buffer, pH 2.02, aqueous buffer): 4.75 mM (≈ 2110 µg/mL); solubility at 24 h ([1]; phosphate buffer, pH 7.4, aqueous buffer): 1.91 mM (≈ 847 µg/mL)
17 nM	CCC(=O)N[C@@H](Cc1nc2ccc(C(C)C)cc2s1)C(=O)N[C@H](CN(C)C)C1CCCCC1 [compound 41]	
44 nM	CCC(=O)N[C@@H](Cc1nc2ccc(C(C)C)cc2s1)C(=O)N[C@H](CN1CCOCC1)C1CCCCC1 [compound 42]	
19 nM and 18.5 nM	CCC(=O)N[C@@H](Cc1nc2ccc(C(C)C)cc2s1)C(=O)N[C@H](CNC(=O)CN1CCOCC1)C1CCCCC1 [compound 43]	
	Ac-MIKLFSLK-NH2 [compound 5]	times less potent than 1 in binding to DCN1 (DCN1): 2–3 times
	Ac-MIKLFSLKQ-NH2 [compound 4]	times less potent than 1 in binding to DCN1 (DCN1): 2–3 times
	Ac-MIKLFSLKQQ-NH2 [compound 3]	times less potent than 1 in binding to DCN1 (DCN1): 2–3 times
